Test [1] addresses Tyrosine-protein kinase Tec (Homo sapiens) (UniProt P42680). As to the kind of experiment: Inhibition of TEC (unknown origin) at 1 uM by Ambit Kinomescan binding assay relative to control.
Test [2] concerns the target eIF-2-alpha kinase GCN2 (Homo sapiens) (UniProt Q9P2K8). Kind of test: Inhibition of GCN2 domain2 Lys1 labeling site in human A-375 cells at 0.05 uM by KiNativ Profiling analysis relative to control. In kind it is cell-based.
In test [3] the test system is Mast/stem cell growth factor receptor Kit (Homo sapiens), P10721 [V559D,T670I]. Kind of test: Inhibition of KIT V559D/T670I mutant (unknown origin) at 1 uM by Ambit Kinomescan binding assay relative to control; values are per cent of control.
Test [4] has as its target Microtubule-associated serine/threonine-protein kinase 3 (Homo sapiens) (UniProt O60307). As to the kind of experiment: Inhibition of MAST3 Lys2 labeling site in human A-375 cells at 0.5 uM by KiNativ Profiling analysis relative to control. The class given is cell-based.
For test [5], the target named is Serine/threonine-protein kinase 25 (Homo sapiens) (UniProt O00506). As to the kind of experiment: Inhibition of YSK1 ATP labeling site in human Huh-7 cells at 10 uM by KiNativ Profiling analysis relative to control. The class given is cell-based.
The target in test [6] is Tyrosine-protein kinase Fgr (Homo sapiens) (UniProt P09769). As to the kind of experiment: Inhibition of FGR (unknown origin) at 10 uM by Ambit Kinomescan binding assay relative to control.
Test [7] can be described thus: Inhibition of Wnk1/2/3 K2 labeling site in human Huh-7 cells at 10 uM by KiNativ Profiling analysis relative to control. The conditions noted are these: condition cancer.
Test [8] concerns the target Proto-oncogene tyrosine-protein kinase Src (Homo sapiens, UniProt P12931). As to the kind of experiment: Inhibition of SRC K1 labeling site in human Huh-7 cells at 10 uM by KiNativ Profiling analysis relative to control. In kind it is cell-based.
Test [9] has as its target T1, Serine/threonine-protein kinase D3 (Homo sapiens) (UniProt O94806).
T1 sequence (whole entry): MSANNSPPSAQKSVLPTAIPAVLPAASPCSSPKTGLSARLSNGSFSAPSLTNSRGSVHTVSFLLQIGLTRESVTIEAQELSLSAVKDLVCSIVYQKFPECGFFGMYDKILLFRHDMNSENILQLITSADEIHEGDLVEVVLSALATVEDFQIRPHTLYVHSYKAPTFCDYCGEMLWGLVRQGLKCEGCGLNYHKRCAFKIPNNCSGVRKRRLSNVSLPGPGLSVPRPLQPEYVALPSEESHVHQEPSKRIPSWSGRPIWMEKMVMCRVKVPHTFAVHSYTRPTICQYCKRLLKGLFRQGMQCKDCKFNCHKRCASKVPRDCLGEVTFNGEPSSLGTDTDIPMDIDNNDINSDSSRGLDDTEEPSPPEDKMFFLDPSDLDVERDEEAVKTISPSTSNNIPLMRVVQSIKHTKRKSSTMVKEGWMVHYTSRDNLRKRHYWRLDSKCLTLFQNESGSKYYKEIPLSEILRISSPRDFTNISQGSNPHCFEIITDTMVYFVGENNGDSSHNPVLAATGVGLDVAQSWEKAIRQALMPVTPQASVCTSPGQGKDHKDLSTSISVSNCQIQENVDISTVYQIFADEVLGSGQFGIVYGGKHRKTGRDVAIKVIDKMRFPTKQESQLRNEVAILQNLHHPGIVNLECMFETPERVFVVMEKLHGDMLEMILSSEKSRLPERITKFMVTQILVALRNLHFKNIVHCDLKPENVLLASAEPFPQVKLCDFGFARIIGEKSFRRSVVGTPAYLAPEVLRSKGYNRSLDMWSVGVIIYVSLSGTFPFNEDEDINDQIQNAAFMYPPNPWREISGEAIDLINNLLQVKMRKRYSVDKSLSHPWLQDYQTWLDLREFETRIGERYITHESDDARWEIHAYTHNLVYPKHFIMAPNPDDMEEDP
Kind of test: Inhibition of PKD3 K2 labeling site in human Huh-7 cells at 10 uM by KiNativ Profiling analysis relative to control. In kind it is cell-based.

Test [10] addresses cGMP-dependent protein kinase 2 (Homo sapiens) (UniProt Q13237). Kind of test: Inhibition of PRKG2 (unknown origin) at 10 uM by Ambit Kinomescan binding assay.
For test [11], the target named is Focal adhesion kinase 1 (Homo sapiens) (UniProt Q05397). As to the kind of experiment: Inhibition of FAK K1 labeling site in human Huh-7 cells at 10 uM by KiNativ Profiling analysis relative to control. In kind it is cell-based.
Test [12] deals with Cyclin-dependent kinase 17 (Homo sapiens) (UniProt Q00537). As to the kind of experiment: Inhibition of PCTAIRE2 Lys1 labeling site in human Huh-7 cells at 1 uM by KiNativ Profiling analysis relative to control. The class given is cell-based.
The target of test [13] is T2, Serine/threonine-protein kinase Chk1 (Homo sapiens) (UniProt O14757).
T2 sequence (whole entry): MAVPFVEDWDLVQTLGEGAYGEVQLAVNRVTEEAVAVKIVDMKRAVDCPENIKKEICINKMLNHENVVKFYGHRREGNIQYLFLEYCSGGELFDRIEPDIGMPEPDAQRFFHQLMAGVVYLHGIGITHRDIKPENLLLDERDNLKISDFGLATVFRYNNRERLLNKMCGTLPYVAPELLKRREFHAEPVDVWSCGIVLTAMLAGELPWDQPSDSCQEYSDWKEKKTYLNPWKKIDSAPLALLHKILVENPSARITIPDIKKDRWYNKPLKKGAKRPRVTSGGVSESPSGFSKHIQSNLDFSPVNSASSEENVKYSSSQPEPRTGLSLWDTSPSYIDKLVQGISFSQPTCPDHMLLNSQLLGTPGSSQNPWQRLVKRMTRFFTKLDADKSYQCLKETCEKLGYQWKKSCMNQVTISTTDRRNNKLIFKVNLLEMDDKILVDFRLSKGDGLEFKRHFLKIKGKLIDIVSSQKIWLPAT
As to the kind of experiment: Inhibition of CHK1 Lys2 labeling site in human Huh-7 cells at 1 uM by KiNativ Profiling analysis relative to control. In kind it is cell-based.

The target of test [14] is Microtubule-associated serine/threonine-protein kinase 2 (Homo sapiens) (UniProt Q6P0Q8). Kind of test: Inhibition of MAST2 Lys2 labeling site harbouring DLKPDNLLVTSMGHIK in human Huh-7 cells at 1 uM by KiNativ Profiling analysis relative to control. In kind it is cell-based.

This passage reports inhibition and residual activity results from ChEMBL document CHEMBL5696442, “Discovery of type II inhibitors of TGFβ-activated kinase 1 (TAK1) and mitogen-activated protein kinase kinase kinase kinase 2 (MAP4K2)” (J Med Chem, 2015).

Calls of active or inactive are those of the source. The rule behind the calls is not given here.

Chain of Tyrosine-protein kinase Tec (Homo sapiens) (P42680 whole entry, looked up, the tested form may be a part): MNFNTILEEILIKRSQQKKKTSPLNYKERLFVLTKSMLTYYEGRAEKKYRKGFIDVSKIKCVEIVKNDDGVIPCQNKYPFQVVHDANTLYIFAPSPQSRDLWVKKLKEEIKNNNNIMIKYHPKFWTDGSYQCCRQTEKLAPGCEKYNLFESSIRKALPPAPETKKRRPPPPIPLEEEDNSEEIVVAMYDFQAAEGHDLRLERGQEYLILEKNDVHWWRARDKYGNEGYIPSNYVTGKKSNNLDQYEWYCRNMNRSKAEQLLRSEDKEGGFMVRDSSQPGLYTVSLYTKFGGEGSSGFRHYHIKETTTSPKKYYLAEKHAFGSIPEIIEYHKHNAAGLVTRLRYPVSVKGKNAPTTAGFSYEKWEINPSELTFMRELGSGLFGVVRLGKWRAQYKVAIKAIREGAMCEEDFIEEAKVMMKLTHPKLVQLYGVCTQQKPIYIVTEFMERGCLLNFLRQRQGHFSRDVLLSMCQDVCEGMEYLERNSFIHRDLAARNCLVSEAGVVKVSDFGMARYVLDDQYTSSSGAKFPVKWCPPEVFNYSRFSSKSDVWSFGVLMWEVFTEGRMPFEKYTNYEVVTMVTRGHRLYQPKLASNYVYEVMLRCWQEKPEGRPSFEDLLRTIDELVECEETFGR
Chain of Proto-oncogene tyrosine-protein kinase Src (P12931 2-536 limits assumed): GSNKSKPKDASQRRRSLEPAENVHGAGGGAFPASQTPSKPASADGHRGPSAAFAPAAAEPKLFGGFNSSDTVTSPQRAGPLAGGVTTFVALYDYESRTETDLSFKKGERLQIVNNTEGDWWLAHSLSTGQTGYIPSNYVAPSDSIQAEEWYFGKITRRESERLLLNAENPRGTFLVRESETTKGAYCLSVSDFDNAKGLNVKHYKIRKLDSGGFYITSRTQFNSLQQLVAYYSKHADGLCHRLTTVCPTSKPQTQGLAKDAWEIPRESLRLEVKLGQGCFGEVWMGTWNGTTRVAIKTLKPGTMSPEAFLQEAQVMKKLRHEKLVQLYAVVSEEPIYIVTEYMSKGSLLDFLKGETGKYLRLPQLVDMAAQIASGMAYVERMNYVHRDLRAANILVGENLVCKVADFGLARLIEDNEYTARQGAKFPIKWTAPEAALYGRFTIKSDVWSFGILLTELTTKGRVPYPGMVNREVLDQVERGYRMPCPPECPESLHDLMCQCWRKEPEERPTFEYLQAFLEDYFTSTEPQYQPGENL
Chain of Microtubule-associated serine/threonine-protein kinase 2 (Homo sapiens) (Q6P0Q8 whole entry): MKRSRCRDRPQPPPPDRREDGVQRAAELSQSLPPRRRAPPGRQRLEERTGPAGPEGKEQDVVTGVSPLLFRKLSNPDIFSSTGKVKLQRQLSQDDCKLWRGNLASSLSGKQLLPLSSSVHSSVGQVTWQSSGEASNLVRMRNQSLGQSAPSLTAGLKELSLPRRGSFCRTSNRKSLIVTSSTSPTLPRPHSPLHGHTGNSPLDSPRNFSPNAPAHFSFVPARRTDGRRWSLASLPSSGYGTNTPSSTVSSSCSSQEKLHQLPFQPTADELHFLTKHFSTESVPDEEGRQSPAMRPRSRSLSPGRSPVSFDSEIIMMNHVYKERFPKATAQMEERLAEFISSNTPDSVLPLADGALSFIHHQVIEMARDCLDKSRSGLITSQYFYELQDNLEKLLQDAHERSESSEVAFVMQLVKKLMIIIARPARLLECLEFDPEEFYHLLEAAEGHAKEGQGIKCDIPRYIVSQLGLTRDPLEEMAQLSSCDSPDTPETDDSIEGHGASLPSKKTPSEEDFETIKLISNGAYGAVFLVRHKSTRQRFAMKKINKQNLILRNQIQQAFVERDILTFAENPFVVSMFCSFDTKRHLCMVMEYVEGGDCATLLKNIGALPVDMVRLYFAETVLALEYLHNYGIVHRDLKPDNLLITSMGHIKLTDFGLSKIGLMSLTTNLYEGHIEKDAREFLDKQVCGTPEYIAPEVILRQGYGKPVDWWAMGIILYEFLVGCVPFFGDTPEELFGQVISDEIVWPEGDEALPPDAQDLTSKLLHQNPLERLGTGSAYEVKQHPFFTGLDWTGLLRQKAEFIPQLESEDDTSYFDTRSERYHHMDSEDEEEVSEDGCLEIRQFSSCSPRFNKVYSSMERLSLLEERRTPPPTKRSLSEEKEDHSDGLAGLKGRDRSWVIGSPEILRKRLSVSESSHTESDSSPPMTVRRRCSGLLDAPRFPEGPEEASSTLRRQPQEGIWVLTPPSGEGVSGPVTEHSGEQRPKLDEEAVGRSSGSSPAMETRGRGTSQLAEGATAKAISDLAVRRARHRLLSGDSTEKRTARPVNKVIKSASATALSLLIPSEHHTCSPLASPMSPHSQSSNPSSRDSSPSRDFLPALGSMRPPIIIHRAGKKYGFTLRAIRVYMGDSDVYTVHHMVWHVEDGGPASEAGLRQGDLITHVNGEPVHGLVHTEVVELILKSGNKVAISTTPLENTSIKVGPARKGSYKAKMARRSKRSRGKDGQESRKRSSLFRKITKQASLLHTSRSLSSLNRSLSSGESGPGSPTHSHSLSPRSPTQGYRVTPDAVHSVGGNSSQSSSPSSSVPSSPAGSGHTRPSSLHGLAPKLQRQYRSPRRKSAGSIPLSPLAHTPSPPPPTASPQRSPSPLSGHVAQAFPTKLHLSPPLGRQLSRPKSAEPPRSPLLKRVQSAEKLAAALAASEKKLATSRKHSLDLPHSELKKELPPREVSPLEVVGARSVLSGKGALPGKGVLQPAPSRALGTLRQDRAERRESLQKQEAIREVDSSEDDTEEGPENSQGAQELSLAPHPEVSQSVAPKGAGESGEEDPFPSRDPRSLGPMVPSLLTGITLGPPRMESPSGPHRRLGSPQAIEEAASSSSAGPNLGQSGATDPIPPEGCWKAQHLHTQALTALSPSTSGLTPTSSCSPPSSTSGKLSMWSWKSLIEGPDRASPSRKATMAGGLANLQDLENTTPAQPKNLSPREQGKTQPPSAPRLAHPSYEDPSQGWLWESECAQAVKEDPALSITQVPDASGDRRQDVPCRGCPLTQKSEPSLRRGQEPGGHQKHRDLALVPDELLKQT
Chain of Mast/stem cell growth factor receptor Kit (Homo sapiens), P10721 [V559D,T670I] (P10721 whole entry V559D/T670I): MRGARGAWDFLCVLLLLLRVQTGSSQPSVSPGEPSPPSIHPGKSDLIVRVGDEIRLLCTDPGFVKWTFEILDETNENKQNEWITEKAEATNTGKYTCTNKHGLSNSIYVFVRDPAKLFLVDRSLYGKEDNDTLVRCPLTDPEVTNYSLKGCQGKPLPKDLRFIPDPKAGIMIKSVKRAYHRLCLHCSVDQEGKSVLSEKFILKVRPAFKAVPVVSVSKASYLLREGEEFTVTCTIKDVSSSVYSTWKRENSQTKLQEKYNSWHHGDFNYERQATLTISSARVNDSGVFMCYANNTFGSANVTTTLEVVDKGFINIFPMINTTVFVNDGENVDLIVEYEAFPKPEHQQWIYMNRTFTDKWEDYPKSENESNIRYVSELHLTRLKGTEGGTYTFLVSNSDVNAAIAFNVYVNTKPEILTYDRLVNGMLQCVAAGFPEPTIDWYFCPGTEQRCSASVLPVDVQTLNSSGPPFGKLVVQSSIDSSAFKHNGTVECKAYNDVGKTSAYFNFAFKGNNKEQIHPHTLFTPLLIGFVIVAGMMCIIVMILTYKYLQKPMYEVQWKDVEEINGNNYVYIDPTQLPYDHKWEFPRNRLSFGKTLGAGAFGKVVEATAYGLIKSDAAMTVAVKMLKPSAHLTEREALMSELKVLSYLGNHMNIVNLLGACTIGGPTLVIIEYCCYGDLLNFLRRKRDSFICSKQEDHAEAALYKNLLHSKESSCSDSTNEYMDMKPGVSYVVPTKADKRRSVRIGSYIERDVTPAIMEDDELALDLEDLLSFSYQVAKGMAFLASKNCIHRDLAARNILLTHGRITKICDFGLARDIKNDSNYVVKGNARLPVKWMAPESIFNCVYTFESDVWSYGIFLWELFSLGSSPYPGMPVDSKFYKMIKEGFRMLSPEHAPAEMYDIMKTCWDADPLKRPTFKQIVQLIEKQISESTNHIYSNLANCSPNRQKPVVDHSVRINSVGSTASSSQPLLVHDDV
Chain of Cyclin-dependent kinase 17 (Homo sapiens) (Q00537 whole entry, looked up): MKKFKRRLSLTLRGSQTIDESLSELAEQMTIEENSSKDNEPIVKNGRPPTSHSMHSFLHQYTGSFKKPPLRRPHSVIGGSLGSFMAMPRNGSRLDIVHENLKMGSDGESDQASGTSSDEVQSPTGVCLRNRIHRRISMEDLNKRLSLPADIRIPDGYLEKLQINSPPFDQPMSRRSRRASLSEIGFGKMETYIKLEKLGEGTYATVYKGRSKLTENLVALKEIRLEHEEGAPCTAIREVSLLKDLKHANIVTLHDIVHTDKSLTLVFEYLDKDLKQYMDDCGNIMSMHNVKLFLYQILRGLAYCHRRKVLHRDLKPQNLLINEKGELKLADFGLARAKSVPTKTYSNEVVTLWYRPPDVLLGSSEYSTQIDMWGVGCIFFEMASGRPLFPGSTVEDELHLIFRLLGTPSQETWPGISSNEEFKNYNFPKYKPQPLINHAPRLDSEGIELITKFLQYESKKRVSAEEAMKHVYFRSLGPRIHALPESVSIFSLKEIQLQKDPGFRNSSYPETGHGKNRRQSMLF
Chain of Tyrosine-protein kinase Fgr (Homo sapiens) (P09769 2-529 limits assumed): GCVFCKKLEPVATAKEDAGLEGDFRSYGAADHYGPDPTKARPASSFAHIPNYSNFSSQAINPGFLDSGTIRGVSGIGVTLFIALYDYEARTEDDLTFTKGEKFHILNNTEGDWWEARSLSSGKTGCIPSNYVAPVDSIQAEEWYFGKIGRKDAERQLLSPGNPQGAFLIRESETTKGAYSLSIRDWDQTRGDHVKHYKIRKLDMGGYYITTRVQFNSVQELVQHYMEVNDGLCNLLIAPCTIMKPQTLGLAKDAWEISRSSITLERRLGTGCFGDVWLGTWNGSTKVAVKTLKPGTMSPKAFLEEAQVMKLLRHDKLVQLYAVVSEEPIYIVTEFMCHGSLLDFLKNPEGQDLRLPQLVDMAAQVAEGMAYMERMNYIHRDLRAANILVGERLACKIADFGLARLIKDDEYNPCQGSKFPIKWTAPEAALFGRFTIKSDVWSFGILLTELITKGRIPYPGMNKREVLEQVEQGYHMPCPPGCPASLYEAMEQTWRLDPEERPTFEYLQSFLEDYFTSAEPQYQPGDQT

Turning to `CCN1CCN(Cc2ccc(NC(=O)c3ccc(C)c(/C=C/c4cnc5[nH]ccc5c4OC)c3)cc2C(F)(F)F)CC1`, the inhibition – broadly, the percentage by which the read-out fell short of the control – in [1] was 16%; in [2], 4.6%. Besides, the residual activity (as a rule, what remains of the control signal, in per cent) in [3] came out at 4.9%.

Consider `CCN1CCN(Cc2ccc(NC(=O)c3ccc(C)c(Oc4ccnc5[nH]ccc45)c3)cc2C(F)(F)F)CC1`, for which the inhibition was found to be 2.5% in [4]; 25.3% in test [5]; 1.2% in test [6]; 50.1% in test [8]; 17.2% in [9]; 13% in [11]. For the same compound, 10 µM produced 7.8% inhibition in [7]. For the same compound, in test [10], the inhibition entry was “inactive”.

For the compound `CNc1cc(Oc2cc(C(=O)Nc3cc(N4CCN(C)CC4)cc(C(F)(F)F)c3)ccc2C)ncn1`, the inhibition was determined as 12% in test [12], 22.5% in test [13] and 30.2% in test [14].
